From publication PMC9948168, “Vanillin-Based Indolin-2-one Derivative Bearing a Pyridyl Moiety as a Promising Anti-Breast Cancer Agent via Anti-Estrogenic Activity” (ACS Omega, 2023)

Key:
MCF-12A cells = assay: Morphological assessment under inverted microscope; assay type: cell-based, human; conditions: 50 and 100 μM; 48 h after treatment
Method: (§1) In addition to the viability analyses, morphological evaluations were performed after treating the cells with different doses of 6j (5, 10, 20, 50, and 100 μM) to better understand what was going on in the plate wells. The cells were photographed under an inverted microscope 48 h after 6j treatment. […] The cell morphology has not deteriorated, and the membrane structures were preserved in a healthy way in the 6j-applied cells.
(§2) Morphological studies were performed to observe the effects of 6j on MCF-7 and MCF-12A cells, as previously reported.[63] In brief, 5 × 10^5 cells were seeded into six-well plates and incubated for 24 h. Afterward, increasing doses of compound 6j (5, 10, 20, 50, and 100 μM) were applied to the cells. The medium containing 0.1% DMSO was used as the untreated control. 48 h after treatments, the cells were photographed under an inverted microscope, Leica DM IL LED with a DFC-290 camera (Leica, Wetzlar, Germany).

MCF-7 cells = assay: Morphological assessment under inverted microscope; assay type: cell-based, human; conditions: 50 and 100 μM; 48 h after treatment
Method: as §1, §2

[1] = system: estrogen-induced uterotrophic effect; assay: In vivo anti-estrogenic (anti-uterotrophic) activity, immature rat model; design: species or system Wistar immature female rats; conditions: oral, 20 mg/kg (tamoxifen 20 mg/kg/day, 6j equimolar per method), 3 days, with estradiol 10 μg/kg/day s.c.; immature female rats
Method: The anti-estrogenic activity was assessed as previously described.[65]−[67] All experiments were carried out in accordance with the recommendations of the […] Animal Care and Use Committee. The experimental protocol was approved by “The Commission on the Ethics of Scientific Research”, Faculty of Pharmacy, Minia University (no. ES30/2021). 20-day-old Wistar immature female rats (40–50 g) from the animal care facility of Nahda University at Beni Suef (NUB) were allowed to acclimatize to lab conditions for 3 days before the experiment with free access to food and water. Estradiol was diluted in olive oil and subcutaneously injected on the loose dorsal skin in a dose of 10 μg/kg/day. […] Both compounds were dissolved in a mixture of DMSO, Tween 20, and saline (1:1:8, respectively) and orally administered. The rats were randomly assigned to […] (n = 6) subjected to daily s.c. injections of estradiol, except for the control group. […] On the 4th day, all rats were sacrificed by cervical dislocation, and the uteri were dissected free of fat and weighed immediately. […] The results were expressed as percent inhibition from the formula [drawing 1] […] It is noteworthy that doses of the tested compounds are calculated on a molar basis. […] Values are expressed as mean ± SEM.

## COc1cc(C=C2C(=O)Nc3ccc(Cl)cc32)ccc1OCc1ccccn1 (mixture of isomers) [6j]
MCF-12A cells
  MCF-12A cell morphology / proliferation: continued to proliferate
MCF-7 cells
  MCF-7 cell morphology / proliferation: remained stable by stopping cell division without being toxic
[1]
  anti-uterotrophic activity (inhibition of estrogen-induced uterine weight): 38%
